Experimental data as given in the CheMixHub viscosity set.

Experiment: xn = mol fraction of the nth substance listed
Conditions: 100 kPa

CCCCCCCC(=O)OCC + CCCCO
viscosity [mPa·s]
Conditions | x2 = 0.1124 | x2 = 0.2221 | x2 = 0.3 | x2 = 0.4 | x2 = 0.4999 | x2 = 0.5999 | x2 = 0.727 | x2 = 0.8203 | x2 = 0.9108
293.15 K | 1.508 | 1.507 | 1.521 | 1.548 | 1.587 | 1.651 | 1.795 | 2.014 | 2.351
298.15 K | 1.378 | 1.379 | 1.378 | 1.407 | 1.436 | 1.488 | 1.61 | 1.789 | 2.071
303.15 K | 1.264 | 1.261 | 1.263 | 1.295 | 1.307 | 1.36 | 1.468 | 1.611 | 1.842
308.15 K | 1.162 | 1.161 | 1.164 | 1.177 | 1.193 | 1.233 | 1.331 | 1.458 | 1.646
313.15 K | 1.069 | 1.062 | 1.06 | 1.07 | 1.09 | 1.122 | 1.194 | 1.307 | 1.467
318.15 K | 0.999 | 0.988 | 0.99 | 0.993 | 1.013 | 1.039 | 1.106 | 1.193 | 1.327
323.15 K | 0.932 | 0.927 | 0.92 | 0.925 | 0.94 | 0.958 | 1.011 | 1.091 | 1.208
